According to publication PMC4417197, “Engineering Saccharomyces pastorianus for the co-utilisation of xylose and cellulose from biomass” (Microbial Cell Factories, 2015):

What was measured:
[1] = target: T1, XR (xylose reductase, xyl1) (Trichoderma reesei, UniProt Q876L8); test: NADPH oxidation at […] nm in cell-free extract of expressing yeast; type: biochemical; details: 50 mM xylose, 0.34 mM NADPH, 25 mM potassium phosphate pH 7.0, 30 C
T1 construct: cell-free extract
T1 sequence (Q876L8 1-324): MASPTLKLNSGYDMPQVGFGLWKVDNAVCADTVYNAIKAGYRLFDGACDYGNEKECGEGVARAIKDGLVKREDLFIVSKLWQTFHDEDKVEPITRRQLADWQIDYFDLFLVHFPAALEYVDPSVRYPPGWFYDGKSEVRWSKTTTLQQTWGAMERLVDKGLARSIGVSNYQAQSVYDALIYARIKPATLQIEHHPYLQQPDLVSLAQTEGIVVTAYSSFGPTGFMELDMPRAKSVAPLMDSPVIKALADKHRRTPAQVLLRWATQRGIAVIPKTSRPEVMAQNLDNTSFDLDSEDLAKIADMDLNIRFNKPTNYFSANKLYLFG

[2] = target: T2, XDH (xylitol dehydrogenase, xdh1) (Trichoderma reesei, UniProt Q876R2); test: NAD+ reduction at […] nm in cell-free extract of expressing yeast; type: biochemical; details: 0.15 M xylitol, 0.4 mM NAD+, 25 mM potassium phosphate pH 7.0
T2 construct: cell-free extract
T2 sequence (Q876R2 1-363): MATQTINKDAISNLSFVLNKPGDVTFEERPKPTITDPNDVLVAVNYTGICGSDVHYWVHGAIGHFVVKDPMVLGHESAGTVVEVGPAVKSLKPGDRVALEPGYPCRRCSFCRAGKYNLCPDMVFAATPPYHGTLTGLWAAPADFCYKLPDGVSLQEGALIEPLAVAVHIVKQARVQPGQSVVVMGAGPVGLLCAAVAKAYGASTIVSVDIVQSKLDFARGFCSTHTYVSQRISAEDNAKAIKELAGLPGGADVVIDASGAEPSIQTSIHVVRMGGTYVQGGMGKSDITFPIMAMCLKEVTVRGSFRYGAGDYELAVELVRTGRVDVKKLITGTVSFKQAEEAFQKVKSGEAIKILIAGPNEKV

Row | Compound | NADPH oxidation at 340 nm in cell-free extract of expressing yeast [1] | NAD+ reduction at 340 nm in cell-free extract of expressing yeast [2]
1 | NC(=O)C1=CN([C@@H]2O[C@H](COP(=O)(O)OP(=O)(O)OC[C@H]3O[C@@H](n4cnc5c(N)ncnc54)[C@H](OP(=O)(O)O)[C@@H]3O)[C@@H](O)[C@H]2O)C=CC1 [NADPH] | measuring the oxidation of the reduced form of nicotinamide adenine dinucleotide phosphate (NADPH) | –
2 | NC(=O)c1ccc[n+]([C@@H]2O[C@H](COP(=O)(O)OP(=O)(O)OC[C@H]3O[C@@H](n4cnc5c(N)ncnc54)[C@H](O)[C@@H]3O)[C@@H](O)[C@H]2O)c1 [NAD^+] | – | measuring the reduction of nicotinamide adenine dinucleotide (NAD^+) to NADH
